Reference: article PMC10611619, “[^99mTc]Tc-PentixaTec: development, extensive pre-clinical evaluation, and first human experience” (European Journal of Nuclear Medicine and Molecular Imaging, 2023)
Where two headings read alike, the source gives them in different places. Where a SMILES comes first, the peptide text is derived from it. Side-chain parts run from the residue outwards. [ ]: non-standard residue; d: D form. The star is where a group is joined. 2Nal = N[C@@H](Cc1ccc2ccccc2c1)C(=O)O; dNMeOrn = CN[C@H](CCCN)C(=O)O; 4Abz = Nc1ccc(C(=O)O)cc1; X1 = NCCNCC(CNCCN)C(=O)*; dDap = NC[C@@H](N)C(=O)O

Columns and labels:
[1] = Blood clearance / excretion in patients; assay type: in vivo, human; settings: for half-life: human, whole blood, iv
Description: [^99mTc]Tc-PentixaTec scans were performed using a dual head gamma camera (GE Discovery NM/CT 670 Pro, Milwaukee, WI, USA). In the four patients undergoing dosimetry, planar dynamic whole body scans were performed 5 min, 30 min, and 1 h with a bed speed of 30 cm/min; 2 h, 3 h, and 5 h with a speed of 12 cm/min; and 24 h with a speed of 5 cm/min after tracer injection. SPECT/CT imaging was performed following the 3-h planar imaging with 60 views and a frame duration of 8 s. Attenuation maps were generated on the basis of low-dose CT.
Venous blood samples (2.7 mL) were drawn directly before each planar scan. A cross-calibrated well-counter (Digibase, Ametek, Oak Ridge, TN, USA) was used to measure activity in the blood samples, resulting in the average activity per mL blood. Plasma half-life was calculated using NUKFIT software.

[2] = test system: hCXCR4 expressing Chem-1 cells; assay: Dual tracer internalization studies with [^125I]FC-131 as internal reference; assay type: cell-based, human
Description: Dual tracer internalization studies using [^125I]FC-131 as internal reference were conducted in hCXCR4 expressing Chem-1 cells in analogy to a previously established protocol. A detailed assay protocol is provided in the supplementary material section.
On the day prior to the experiment, Chem-1 cells were seeded in 24-well-plates at a density of app. 1·10^5 cells per well. On the day of the experiment, the culture medium was removed and the cells were washed once with 250 µL of unsupplemented medium before being left to equilibrate in 200 µL of assay medium (DMEM/F-12 containing 5% BSA) at 37°C for a minimum of 15 min before the experiment. Cells were then coincubated with the respective ^99mTc-labeled compound of interest (0.2 nM) and [^125I]FC-131 (0.2 nM) in the absence (total binding) or presence (non-specific binding) of 100 µM AMD3100 for different time points up to 120 min at 37°C (n=3 wells, respectively, per time point). Incubation was terminated by placing the plate on an ice pack for app. 1 min and by subsequent removal of the incubation medium. Cells were thoroughly rinsed with 250 µL of HBSS. After washing twice with 250 µL of ice cold acid wash buffer (0.02 M NaOAc buffered with AcOH to pH = 5), cells were lysed with 250 µL of 1 N NaOH. The lysate was tranferred to vials and combined with 250 µL of HBSS used for rinsing the wells. Quantification of the amount of free, acid-releasable and internalized ^99mTc- and ^125I-activity was performed using dual isotope protocol on a WIZARD^2® 2480 automatic γ-Counter (Perkin Elmer, Waltham MA, USA).
All data were corrected for non-specific internalization in the presence of […] AMD3100 and were then normalized to the specific internalization observed of the standard radioligand [^125I]FC-131.

SMILES: C[C@@H](NC(=O)[C@@H](CCCNC(=N)N)NC(=O)[C@@H](CN)NC(=O)C(CNCCN)CNCCN)C(=O)Nc1ccc(C(=O)NCCC[C@@H]2C(=O)N[C@@H](CCCNC(=N)N)C(=O)N[C@@H](Cc3ccc4ccccc4c3)C(=O)NCC(=O)N[C@H](Cc3ccc(O)cc3)C(=O)N2C)cc1 [[^99mTc]Tc-N4-L6-CPCR4, [^99mTc]Tc-N4-dap-r-a-Abz-CPCR4, metal not drawn] (cyclo([dY][dNMeOrn]([4Abz-dA-dR-dDap-X1])R[2Nal]G))
- hepatobiliary excretion [1]: no significant hepatobiliary excretion
- half-life ([1]; read-out: plasma half-life, median): 19 min
- half-life ([1]; read-out: plasma half-life, range): 15 to 25 min
- internalized activity in % of total cellular activity ([2]; 2 h): 97%
- absolute intracellular tracer accumulation ([2]; 2 h, 37°, 0.2 nM): ~40 % of added dose
- Internalization (% of reference) ([2]; 120 min, normalized to specific internalization of [^125I]FC-131, Chem-1 cells): 694 (120 min) % of reference
- internalization area under the curve (AUC) ([2]; internalization kinetics, Fig. 1): 3799
